{
  "source": "paper PMC10747733",
  "about": "“N-Substituted 2-(Benzenosulfonyl)-1-Carbotioamide Derivatives Exert Antimicrobial and Cytotoxic Effects via Aldehyde Dehydrogenase Pathway: Synthesis, In Silico and In Vitro Studies” (Pharmaceuticals, 2023)",
  "experiment_in_all_cases": "Broth microdilution antimicrobial activity",
  "type_in_all_cases": "cell-based",
  "key": {"[1]": {"test_system": "Bacillus cereus ATCC 10876", "excerpt": "(§1) Reference strains of microorganisms that came from American Type Culture Collection (ATCC) (Manassas, VA, USA) were used for this study. The representative Gram-positive bacteria were as follows: Staphylococcus aureus ATCC 25923, Staphylococcus aureus ATCC 29213, Staphylococcus aureus ATCC 43300, Staphylococcus epidermidis ATCC 12228, Enterococcus faecalis ATCC 29212, Micrococcus luteus ATCC 10240, Bacillus subtilis ATCC 6633 and Bacillus cereus ATCC 10876. While, those of Gram-negative bacteria were as follows: Bordetella bronchiseptica ATCC 4617, Escherichia coli ATCC 25922, Klebsiella pneumoniae ATCC 13883, Proteus mirabilis ATCC 12453, Salmonella Typhimurium ATCC 14028 and Pseudomonas aeruginosa ATCC 9027. Moreover, the following fungi belonging to yeasts were used: Candida albicans ATCC 10231, Candida albicans ATCC 2091, Candida parapsilosis ATCC 22019, Candida glabrata ATCC 90030 and Candida krusei ATCC 14243.\n(§2) The new compounds WZ1–WZ4 were assayed for both antibacterial and antifungal activity using the broth microdilution method in accordance with the European Committee on Antimicrobial Susceptibility Testing (EUCAST) and Clinical and Laboratory Standards Institute (CLSI) guidelines. The microorganisms were grown at 35 °C for 18–24 h on appropriate media (nutrient agar and Sabouraud for bacteria and fungi, respectively) (BioMaxima S.A., Lublin, Poland). Next, microbial suspensions with an optical density of 0.5 McFarland standard scale (in sterile 0.85% NaCl) were prepared. In turn, the tested compounds were initially diluted at 50 mg/mL in dimethyl sulfoxide (DMSO) and the broth microdilution method was used to assess their minimum inhibitory concentrations (MICs). For these studies, selective broth Mueller-Hinton (MH) (BioMaxima S.A., Lublin, Poland) and RPMI (Roswell Park Memorial Institute) 1640 with MOPS (3-(N-Morpholino)propanesulfonic acid) (Sigma-Aldrich Chemicals, St. Louis, MO, USA) were used for bacteria and fungi, respectively. The antimicrobial effect of compounds WZ1–WZ4 was determined in the concentration range from 2000 to 0.98 µg/mL.\n(§3) Then, the microbial suspensions were introduced into each well of the microplate and incubated for 18–24 h at 35 °C. […] The reference drugs ciprofloxacin or vancomycin (against bacteria) and nystatin (against fungi) (Sigma-Aldrich Chemicals, St. Louis, MO, USA) were also used. Next, the values of the minimum bactericidal concentration (MBC) and minimum fungicidal concentration (MFC) of WZ1–WZ4 were assessed. For this purpose, the cultures from each MIC determination well were transferred to a suitable solid medium and incubated under appropriate conditions. The lowest concentrations of compounds without microbial growth were read as MBC or MFC. The studies were performed in triplicate and representative data were gathered.\n(§4) In turn, the MBC/MIC or MFC/MIC ratios were used to assess bactericidal/fungicidal (MBC/MIC or MFC/MIC ≤ 4) and bacteriostatic/fungistatic (MBC/MIC or MFC/MIC > 4) effect of these compounds [93]."}, "[2]": {"test_system": "Bacillus subtilis ATCC 6633", "excerpt": "as §1, §2, §3, §4"}, "[3]": {"test_system": "Bordetella bronchiseptica ATCC 4617", "excerpt": "as §1, §2, §3, §4"}, "[4]": {"test_system": "Candida albicans ATCC 10231", "excerpt": "as §1, §2, §3, §4"}, "[5]": {"test_system": "Candida albicans ATCC 2091", "excerpt": "as §1, §2, §3, §4"}, "[6]": {"test_system": "Candida glabrata ATCC 90030", "excerpt": "as §1, §2, §3, §4"}, "[7]": {"test_system": "Candida krusei ATCC 14243", "excerpt": "as §1, §2, §3, §4"}, "[8]": {"test_system": "Candida parapsilosis ATCC 22019", "excerpt": "as §1, §2, §3, §4"}, "[9]": {"test_system": "Enterococcus faecalis ATCC 29212", "excerpt": "as §1, §2, §3, §4"}, "[10]": {"test_system": "Escherichia coli ATCC 25922", "excerpt": "as §1, §2, §3, §4"}, "[11]": {"test_system": "Klebsiella pneumoniae ATCC 13883", "excerpt": "as §1, §2, §3, §4"}, "[12]": {"test_system": "Micrococcus luteus ATCC 10240", "excerpt": "as §1, §2, §3, §4"}, "[13]": {"test_system": "Proteus mirabilis ATCC 12453", "excerpt": "as §1, §2, §3, §4"}, "[14]": {"test_system": "Pseudomonas aeruginosa ATCC 9027", "excerpt": "as §1, §2, §3, §4"}, "[15]": {"test_system": "Salmonella Typhimurium ATCC 14028", "excerpt": "as §1, §2, §3, §4"}, "[16]": {"test_system": "Staphylococcus aureus ATCC 25923", "excerpt": "as §1, §2, §3, §4"}, "[17]": {"test_system": "Staphylococcus aureus ATCC 29213", "excerpt": "as §1, §2, §3, §4"}, "[18]": {"test_system": "Staphylococcus aureus ATCC 43300", "excerpt": "as §1, §2, §3, §4"}, "[19]": {"test_system": "Staphylococcus epidermidis ATCC 12228", "excerpt": "as §1, §2, §3, §4"}, "[20]": {"conditions": "ATCC29213, Staphylococcus aureus ATCC 29213"}, "[21]": {"conditions": "ATCC43300, Staphylococcus aureus ATCC 43300"}},
  "data": [
    {"molecule": "CCCCNC(=S)NNS(=O)(=O)c1ccccc1", "note": "[WZ2, 2-(Benzenesulfonyl)-N-Butylhydrazine-1-Carbothioamide]", "values": [
      {"measurement": "MBC/MIC", "setting": "[1]", "value": 2},
      {"measurement": "MBC", "setting": "[1]; ATCC10876", "value": 2000, "unit": "µg/mL"},
      {"measurement": "MIC", "setting": "[1]; ATCC10876", "value": 1000, "unit": "µg/mL"},
      {"measurement": "MBC/MIC", "setting": "[2]", "value": "> 2"},
      {"measurement": "MBC", "setting": "[2]; ATCC6633", "value": "> 2000", "unit": "µg/mL"},
      {"measurement": "MIC", "setting": "[2]; ATCC6633", "value": 1000, "unit": "µg/mL"},
      {"measurement": "MBC/MIC", "setting": "[3]", "value": "> 1"},
      {"measurement": "MBC", "setting": "[3]; ATCC4617", "value": "> 2000", "unit": "µg/mL"},
      {"measurement": "MIC", "setting": "[3]; ATCC4617", "value": "> 2000", "unit": "µg/mL"},
      {"measurement": "MFC/MIC", "setting": "[4]", "value": "> 1"},
      {"measurement": "MFC", "setting": "[4]; ATCC10231, read-out: MFC", "value": "> 2000", "unit": "µg/mL"},
      {"measurement": "MIC", "setting": "[4]; ATCC10231, read-out: MIC", "value": 2000, "unit": "µg/mL"},
      {"measurement": "MFC/MIC", "setting": "[5]", "value": "> 1"},
      {"measurement": "MFC", "setting": "[5]; ATCC2091, read-out: MFC", "value": "> 2000", "unit": "µg/mL"},
      {"measurement": "MIC", "setting": "[5]; ATCC2091, read-out: MIC", "value": 2000, "unit": "µg/mL"},
      {"measurement": "MFC/MIC", "setting": "[6]", "value": "> 1"},
      {"measurement": "MFC", "setting": "[6]; Nakaseomyces glabratus, ATCC90030, read-out: MFC", "value": "> 2000", "unit": "µg/mL"},
      {"measurement": "MIC", "setting": "[6]; Nakaseomyces glabratus, ATCC90030, read-out: MIC", "value": "> 2000", "unit": "µg/mL"},
      {"measurement": "MFC/MIC", "setting": "[7]", "value": "> 1"},
      {"measurement": "MFC", "setting": "[7]; Pichia kudriavzevii, ATCC14243, read-out: MFC", "value": "> 2000", "unit": "µg/mL"},
      {"measurement": "MIC", "setting": "[7]; Pichia kudriavzevii, ATCC14243, read-out: MIC", "value": 2000, "unit": "µg/mL"},
      {"measurement": "MFC/MIC", "setting": "[8]", "value": "> 1"},
      {"measurement": "MFC", "setting": "[8]; Lodderomyces parapsilosis, ATCC22019, read-out: MFC", "value": "> 2000", "unit": "µg/mL"},
      {"measurement": "MIC", "setting": "[8]; Lodderomyces parapsilosis, ATCC22019, read-out: MIC", "value": 2000, "unit": "µg/mL"},
      {"measurement": "MBC", "setting": "[9]; ATCC29212, Enterococcus faecalis ATCC 29212, read-out: MBC", "value": "> 2000", "unit": "µg/mL"},
      {"measurement": "MIC", "setting": "[9]; ATCC29212, Enterococcus faecalis ATCC 29212, read-out: MIC", "value": "> 2000", "unit": "µg/mL"},
      {"measurement": "bioactivity class", "setting": "[9]; E. faecalis", "value": "no bioactivity (no bioactivity (MIC > 1000 µg/mL))"},
      {"measurement": "MBC/MIC", "setting": "[9]; Enterococcus faecalis ATCC 29212", "value": "> 1"},
      {"measurement": "MBC/MIC", "setting": "[10]", "value": "> 1"},
      {"measurement": "MBC", "setting": "[10]; ATCC25922", "value": "> 2000", "unit": "µg/mL"},
      {"measurement": "MIC", "setting": "[10]; ATCC25922", "value": "> 2000", "unit": "µg/mL"},
      {"measurement": "MBC/MIC", "setting": "[11]", "value": "> 1"},
      {"measurement": "MBC", "setting": "[11]; ATCC13883", "value": "> 2000", "unit": "µg/mL"},
      {"measurement": "MIC", "setting": "[11]; ATCC13883", "value": "> 2000", "unit": "µg/mL"},
      {"measurement": "MBC/MIC", "setting": "[12]", "value": 2},
      {"measurement": "MBC", "setting": "[12]; ATCC10240", "value": 2000, "unit": "µg/mL"},
      {"measurement": "MIC", "setting": "[12]; ATCC10240", "value": 1000, "unit": "µg/mL"},
      {"measurement": "MBC/MIC", "setting": "[13]", "value": "> 1"},
      {"measurement": "MBC", "setting": "[13]; ATCC12453", "value": "> 2000", "unit": "µg/mL"},
      {"measurement": "MIC", "setting": "[13]; ATCC12453", "value": "> 2000", "unit": "µg/mL"},
      {"measurement": "MBC/MIC", "setting": "[14]", "value": "> 1"},
      {"measurement": "MBC", "setting": "[14]; ATCC9027", "value": "> 2000", "unit": "µg/mL"},
      {"measurement": "MIC", "setting": "[14]; ATCC9027", "value": "> 2000", "unit": "µg/mL"},
      {"measurement": "MBC/MIC", "setting": "[15]", "value": "> 1"},
      {"measurement": "MBC", "setting": "[15]; Salmonella enterica", "value": "> 2000", "unit": "µg/mL"},
      {"measurement": "MIC", "setting": "[15]; Salmonella enterica", "value": "> 2000", "unit": "µg/mL"},
      {"measurement": "MBC/MIC", "setting": "[16]", "value": "> 2"},
      {"measurement": "MBC", "setting": "[16]; ATCC25923", "value": "> 2000", "unit": "µg/mL"},
      {"measurement": "MIC", "setting": "[16]; ATCC25923", "value": 1000, "unit": "µg/mL"},
      {"measurement": "MBC", "setting": "[17]; [20]", "value": "> 2000", "unit": "µg/mL"},
      {"measurement": "MIC", "setting": "[17]; [20]", "value": 2000, "unit": "µg/mL"},
      {"measurement": "bioactivity class", "setting": "[17]; S. aureus ATCC 29213", "value": "no bioactivity (no bioactivity (MIC > 1000 µg/mL))"},
      {"measurement": "MBC/MIC", "setting": "[17]; Staphylococcus aureus ATCC 29213", "value": "> 1"},
      {"measurement": "MBC", "setting": "[18]; [21]", "value": "> 2000", "unit": "µg/mL"},
      {"measurement": "MIC", "setting": "[18]; [21]", "value": 2000, "unit": "µg/mL"},
      {"measurement": "bioactivity class", "setting": "[18]; S. aureus ATCC 43300", "value": "no bioactivity (no bioactivity (MIC > 1000 µg/mL))"},
      {"measurement": "MBC/MIC", "setting": "[18]; Staphylococcus aureus ATCC 43300", "value": "> 1"},
      {"measurement": "MBC/MIC", "setting": "[19]", "value": "> 2"},
      {"measurement": "MBC", "setting": "[19]; ATCC12228", "value": "> 2000", "unit": "µg/mL"},
      {"measurement": "MIC", "setting": "[19]; ATCC12228", "value": 1000, "unit": "µg/mL"}
    ]}
  ]
}
